Patent publication US20150265691A1 (priority 2006, published 2015)
Where “and” joins values, the source holds several entries; their conditions need not be identical. Equal entries are not always repeated. Where two headings read alike, the source gives them in different places.

Columns and labels:
Format in all cases: binding
[1] = test system: rabbit anti-B. anthracis spore polyclonal IgG antibodies
[2] = test system: rabbit anti-B. anthracis spore polyclonal IgG antibodies; remark: listed apart in the source
[3] = test system: rabbit anti-anthrax spore IgG
[4] = test system: rabbit anti-anthrax spore IgG; remark: listed apart in the source

COC(=O)CCCCCO[C@@H]1O[C@H](C)[C@@H](NC(=O)CC(C)(C)O)[C@H](O)[C@H]1OC [Saccharide 1, 5-(Methoxycarbonyl)pentyl 4-(3-hydroxy-3-methylbutanamido)-2-O-methyl-4,6-dideoxy-β-D-glucopyranoside]
IgG signal detected by glycan arrays (n = 3) Mean [1]: 1.44
antibody reactivity detected by glycan arrays [1]: marginally reactive
blocking of antibody reactivity with anthrose-containing tri- and tetra-saccharides [2]: blocked the antibody reactivity
inhibition of other antibody reactivities: binding to isolichenin and Pn 23 polysaccharide [2]: no significant inhibition
IC50 [3]: 688 pM
relative inhibiting powers [3]: 43.3
I^50 [4]: 7.3 nmol

COC(=O)CCCCCO[C@@H]1O[C@@H](C)[C@H](O)[C@@H](O[C@@H]2O[C@H](C)[C@@H](NC(=O)CC(C)(C)O)[C@H](O)[C@H]2OC)[C@H]1O [Saccharide 2, 5-(Methoxycarbonyl)pentyl 4-(3-hydroxy-3-methylbutanamido)-2-O-methyl-4,6-dideoxy-β-D-glucopyranosyl-(1→3)-α-L-rhamnopyranoside]
IgG signal detected by glycan arrays (n = 3) Mean [1]: 1.65
antibody reactivity detected by glycan arrays [1]: marginally reactive
IC50 [3]: 19 pM
relative inhibiting powers [3]: 1.18

COC(=O)CCCCCO[C@@H]1O[C@@H](C)[C@H](O)[C@@H](O)[C@H]1O[C@@H]1O[C@@H](C)[C@H](O)[C@@H](O[C@@H]2O[C@H](C)[C@@H](NC(=O)CC(C)(C)O)[C@H](O)[C@H]2OC)[C@H]1O [Saccharide 3, 5-(Methoxycarbonyl)pentyl 4-(3-hydroxy-3-methylbutanamido)-2-O-methyl-4,6-dideoxy-β-D-glucopyranosyl-(1→3)-α-L-rhamnopyranosyl-(1→2)-α-L-rhamnopyranoside]
IgG signal detected by glycan arrays (n = 3) Mean [1]: 2.73
antibody reactivity detected by glycan arrays [1]: significant amounts of IgG antibodies
IC50 [3]: 16 pM
relative inhibiting powers [3]: 1.00

COC(=O)CCCCCO[C@H]1O[C@@H](C)[C@H](O)[C@@H](O)[C@H]1O[C@@H]1O[C@@H](C)[C@H](O)[C@@H](O[C@@H]2O[C@@H](C)[C@H](O)[C@@H](O[C@@H]3O[C@H](C)[C@@H](NC(=O)CC(C)(C)O)[C@H](O)[C@H]3OC)[C@H]2O)[C@H]1O [Saccharide 4, 5-(Methoxycarbonyl)pentyl 4-(3-hydroxy-3-methylbutanamido)-2-O-methyl-4,6-dideoxy-β-D-glucopyranosyl-(1→3)-α-L-rhamnopyranoyl-(1→3)-α-L-rhamnopyranosyl-(1→2)-β-L-rhamnopyranoside]
IgG signal detected by glycan arrays (n = 3) Mean [1]: 5.16
antibody reactivity detected by glycan arrays [1]: significant amounts of IgG antibodies
I^50 [4]: 0.23 nmol

COC(=O)CCCCCO[C@@H]1O[C@@H](C)[C@H](O)[C@@H](O)[C@H]1O[C@@H]1O[C@@H](C)[C@H](O)[C@@H](O[C@@H]2O[C@@H](C)[C@H](O)[C@@H](O[C@@H]3O[C@H](C)[C@@H](NC(=O)CC(C)(C)O)[C@H](O)[C@H]3OC)[C@H]2O)[C@H]1O [Saccharide 5, 5-(Methoxycarbonyl)pentyl 4-(3-hydroxy-3-methylbutanamido)-2-O-methyl-4,6-dideoxy-β-D-glucopyranosyl-(1→3)-α-L-rhamnopyranoyl-(1→3)-α-L-rhamnopyranosyl-(1→2)-α-L-rhamnopyranoside]
IgG signal detected by glycan arrays (n = 3) Mean [1]: 5.19
antibody reactivity detected by glycan arrays [1]: significant amounts of IgG antibodies
I^50 [4]: 0.18 nmol

COC(=O)CCCCCO[C@@H]1O[C@@H](C)[C@H](O)[C@@H](O)[C@H]1O[C@@H]1O[C@@H](C)[C@H](O)[C@@H](O[C@@H]2O[C@@H](C)[C@H](O)[C@@H](O)[C@H]2O)[C@H]1O [Saccharide 17, 5-(Methoxycarbonyl)pentyl α-L-rhamnopyranosyl-(1→3)-α-L-rhamnopyranosyl-(1→2)-α-L-rhamnopyranoside]
IgG signal detected by glycan arrays (n = 3) Mean [1]: 0.98
IgG reactivities (Ratio of Sg./bg.) Mean [2]: 1.04 and 0.97 and 1.00 and 0.99

Methyl 2-O-methyl-4,6-dideoxy-4-(3-deoxy-L-glycero-tetronamido)-<-D-mannopyranosyl-(1→2)-tris[4,6-dideoxy-4-(3-deoxy-L-glycero-tetronamido)-<-D-mannopyranosyl-(1→2)]-4,6-dideoxy-4-(3-deoxy-L-glycero-tetronamido)-<-D-mannopyranoside [Saccharide 29]
IgG signal detected by glycan arrays (n = 3) Mean [1]: 1.09

Nigerose [reference compound]
inhibition of antibody reactivity with anthrose-tetrasaccharide [3]: no inhibition

Streptococcus pneumoniae type 23 capsular polysaccharide [Saccharide 35]
IgG reactivities (Ratio of Sg./bg.) Mean [1]: 12.35
antibody reactivity detected by glycan arrays [1]: positive spots

[Methyl 2-O-methyl-4,6-dideoxy-4-(3-deoxy-L-glycero-tetronamido)-<-D-mannopyranosyl-(1→2)-4,6-dideoxy-4-(3-deoxy-L-glycero-tetronamido)-<-D-mannopyranosyl-(1→2)-4,6-dideoxy-4-(3-deoxy-L-glycero-tetronamido)-<-D-mannopyranoside]5-BSA [Saccharide 31]
IgG signal detected by glycan arrays (n = 3) Mean [1]: 1.53

[Methyl 2-O-methyl-4,6-dideoxy-4-(3-deoxy-L-glycero-tetronamido)-<-D-mannopyranosyl-(1→2)-bis[4,6-dideoxy-4-(3-deoxy-L-glycero-tetronamido)-<-D-mannopyranosyl-(1→2)]-4,6-dideoxy-4-(3-deoxy-L-glycero-tetronamido)-<-D-mannopyranoside]10-BSA [Saccharide 32]
IgG signal detected by glycan arrays (n = 3) Mean [1]: 1.20

[Methyl 2-O-methyl-4,6-dideoxy-4-(3-deoxy-L-glycero-tetronamido)-<-D-mannopyranosyl-(1→2)-tris[4,6-dideoxy-4-(3-deoxy-L-glycero-tetronamido)-<-D-mannopyranosyl-(1→2)]-4,6-dideoxy-4-(3-deoxy-L-glycero-tetronamido)-<-D-mannopyranoside]10-BSA [Saccharide 33]
IgG signal detected by glycan arrays (n = 3) Mean [1]: 1.37

isomaltopentose [IM5, reference compound]
inhibition of antibody reactivity with anthrose-tetrasaccharide [3]: no inhibition
